The assay deals with T1, Human TREM2 (Homo sapiens, UniProt Q9NZC2).
T1 construct: expressed in transfected cells
As to the kind of experiment: Human TREM2 activity by cellular phosphorylation of Syk (AlphaLISA SureFire Ultra p-SYK) in HEK293/DAP12+TREM2 stable cell line. The class given is cell-based. The note with it: HEK293/DAP12+TREM2 cells; for Emax: maximal response relative to the maximal response of the reference agonist (8-(4-chloro-2-fluorophenyl)-2,3-dimethyl-6-[(2S)-2-(1-methyl-1H-pyrazol-4-yl)morpholin-4-yl]-3H,4H-[1,3]diazino[5,4-d]pyrimidin-4-one); for EC50: phospho-Syk AlphaScreen signal, 30 min incubation, concentration giving 50% of maximal response. An excerpt:
Human TREM2, in vitro Measurement of Triggering Receptor Expressed on Myeloid Cells 2 activity using cellular phosphorylation of Spleen Tyrosine Kinase (“Syk”) Assay
HEK-293 cells were co-transfected with separate plasmids encoding TREM2 and DAP12 to generate a stable cell line. After antibiotic selection, functional clone pool analysis and two successive limiting dilutions, the final clone
“HEK293/DAP12+TREM2” underwent a qPCR analysis and a pharmacological validation.
TREM2 signaling through DAP12 was monitored in the HEK293/DAP12+TREM2 stable cell line by measuring the phosphorylation levels of the Syk kinase using the commercially available AlphaLISA SureFire Ultra p-SYK (Tyr525/526) Assay Kit (PerkinElmer #ALSU-PSYK), based on the Perkin Elmer AlphaScreen/AlphaLISA technology.
Compounds are transferred to the test plate and tested in full dose response, 8 concentrations in quadruplicate data points. Compound serial dilutions were performed at Cybi-Felix instrument in 100% DMSO and the dose response curves were assembled in automated fashion in 384MPT at Hamilton STARIet instrument. All the stock solutions were prepared at 20 mM in 100% DMSO. For compounds testing, the starting concentration was 100 μM, dilution steps 1:6. A different concentration's range was adapted for compound's activity based on the preliminary results. Finally, a 384MPT reformatted for all compounds at 8 concentrations, quadruplicates, was used as “mother to child” process with a CyBi®-Well dispenser in which 1 μL of each compound was moved into a destination plate pre-filled with 65.6 μL of EMEM cell culture medium (BIOWHITTAKER_cat.BE12-125F), thus obtaining 3× concentrated compounds working solution. In columns 1-2 and 23-24 the control wells were added. In particular, dose response curves of a reference control agonist were included in column 1 and 24 as reference control agonist (Reference control agonists used include Human TREM2 polyclonal Antibody AF1828: R&D Systems; Human TREM2 monoclonal Antibody MAB1828: R&D Systems). The dose response curves were tested starting at 30 μM, dilution step 1:6. Both “source” compound plate and “destination” compound plate were barcoded and a relationship between the two plates was thus generated.
HEK293/DAP12+TREM2 cells were cultured in EMEM medium supplemented with IX Penicillin/Streptomycin (BIOWHITTAKER_cat.DE17-602E), ULTRAGLUTAMINE I 200 mM, 10% Fetal Bovine Serum plus antibiotics referred to as “HEK293 Culture Medium”. The day before the experiment, cells were detached by gentle wash with DPBS, followed by 5 min incubation at 37° C. with Trypsin solution. Cells were then diluted in HEK293 Culture Medium without antibiotics, counted and seeded into 384-well poly-D-Lysine coated microplates black/clear bottom (GREINER 781946) at a density of 10,000 cells/well in 25 μL/well by the use of a MATRIX WellMate dispenser. Plates were placed into a humidified cell culture incubator at 37° C. with 5% CO2 until the experimental day. 20-24 hours after seeding mature medium was removed and replaced with 10 μL/well of EMEM cell medium supplemented with 0.1% Pluronic F-68 non-ionic surfactant (Thermofisher, 24040032), referred to as “Assay Buffer”, using the CyBi®-Well instrument. Then 5 μL/well of Assay Buffer containing 3× concentrated test compounds or the reference control agonist (in 0.5% final DMSO concentration) were added to the cells with the CyBi®-Well instrument. Cell plates were incubated for 30 min into a humidified cell culture incubator at 37° C. with 5% CO2,then the medium was removed by manually discard. 20 μL/well of lysis buffer were dispensed using the CyBi®-Well instrument and plates were incubated for 10 min at room temperature on a plate shaker (350 rpm). Then, 10 μL/well of lysate were transferred to the Alpha plates. The CyBi®-Well instrument was used to dispense 5 μL/well of AlphaLISA Acceptor Bead Solution in IX Immunoassay buffer (Perkin Elmer ALOOOF). […]

Bounds are passed on as bounds.

T1 sequence (Q9NZC2 19-230): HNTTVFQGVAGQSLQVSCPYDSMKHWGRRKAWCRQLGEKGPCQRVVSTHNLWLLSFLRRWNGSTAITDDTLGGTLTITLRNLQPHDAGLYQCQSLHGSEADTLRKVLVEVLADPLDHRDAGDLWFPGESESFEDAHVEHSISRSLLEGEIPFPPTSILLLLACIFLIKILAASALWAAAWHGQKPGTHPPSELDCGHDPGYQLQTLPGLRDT
T1 sequence (O43914 22-113 partner): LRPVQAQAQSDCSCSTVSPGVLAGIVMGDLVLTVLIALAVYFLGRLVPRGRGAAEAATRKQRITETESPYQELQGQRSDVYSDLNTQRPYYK

The term Emax denotes the greatest response seen or fitted, relative to the assay's reference. For orientation: EC50 means the concentration giving half of the maximal effect. In turn, `C[C@@H]1CN(c2nc(-c3ccc(F)cc3F)c3ncn(C)c(=O)c3n2)C[C@H](c2cnn(C3CC3)c2)O1` showed an Emax of 75 to 110% and an EC50 of 10 to 100 nM.

`Cc1nc2c(-c3ccc(F)cc3F)nc(N3C[C@@H](C)O[C@@H](c4cnn(C5CC5)c4)C3)nc2c(=O)n1C` yielded an Emax of 75 to 110% and a 50% effective concentration (EC50) of 1 to 10 nM.

Consider `COc1ccc(-c2nc(N3C[C@@H](C)O[C@@H](c4cnn(C5CC5)c4)C3)nc3c(=O)n(C)c(C(F)(F)F)nc23)c(F)c1` (single isomer, unassigned) [Example 4], for which the Emax fell in the range of 75 to 110% and the EC50 was < 1 nM.

With `C[C@@H]1CN(c2nc(-c3ccc(C#N)cc3F)c3nc(C(F)(F)F)n(C)c(=O)c3n2)C[C@H](c2cnn(C3CC3)c2)O1` (single isomer, unassigned) [Example 5A], the Emax is > 110% and the EC50 is < 1 nM.

As to `C[C@H]1CN(c2nc(-c3ccc(C#N)cc3F)c3nc(C(F)(F)F)n(C)c(=O)c3n2)C[C@@H](c2cnn(C3CC3)c2)O1` (single isomer, unassigned) [Example 5B], the Emax is > 110% and the EC50 lay in the range of 1 to 10 nM.

With `C[C@@H]1CN(c2nc(-c3ccc(C#N)cc3F)c3nc(C(F)(F)F)n(C)c(=O)c3n2)C[C@H](c2cnn(C)c2)O1` (single isomer, unassigned) [Example 6A], the Emax was in the range of 75 to 110% and the EC50 was in the range of 1 to 10 nM.

For the compound `C[C@H]1CN(c2nc(-c3ccc(C#N)cc3F)c3nc(C(F)(F)F)n(C)c(=O)c3n2)C[C@@H](c2cnn(C)c2)O1` (single isomer, unassigned) [Example 6B], the Emax lay within 75 to 110% and the EC50 lay in the range of 1 to 10 nM.

Regarding `Cn1cc([C@H]2CN(c3nc(-c4ccc(C#N)cc4F)c4nc(C(F)(F)F)n(C)c(=O)c4n3)CC(F)(F)O2)cn1` (single isomer, unassigned) [Example 7A], the Emax was > 110% and the EC50 was < 1 nM.

In turn, `Cn1cc([C@@H]2CN(c3nc(-c4ccc(C#N)cc4F)c4nc(C(F)(F)F)n(C)c(=O)c4n3)CC(F)(F)O2)cn1` (single isomer, unassigned) [Example 7B] gave an Emax of 75 to 110% and an EC50 of 1 to 10 nM.

For `COc1cc([C@@H]2CN(c3nc(-c4ccc(C#N)cc4F)c4nc(C(F)(F)F)n(C)c(=O)c4n3)CCO2)ccn1` (single isomer, unassigned) [Example 8A], the Emax lay within 75 to 110% and the EC50 lay within 10 to 100 nM.

`COc1cc([C@H]2CN(c3nc(-c4ccc(C#N)cc4F)c4nc(C(F)(F)F)n(C)c(=O)c4n3)CCO2)ccn1` (single isomer, unassigned) [Example 8B]: the Emax fell in the range of 75 to 110% and the EC50 is < 1 nM.

For the compound `COc1cc([C@@H]2CN(c3nc(-c4ccc(C#N)cc4F)c4nc(C(F)(F)F)n(C)c(=O)c4n3)C[C@H](C)O2)ccn1` (single isomer, unassigned) [Example 9A], the Emax was in the range of 75 to 110% and the EC50 is < 1 nM.

In the case of `COc1cc([C@H]2CN(c3nc(-c4ccc(C#N)cc4F)c4nc(C(F)(F)F)n(C)c(=O)c4n3)C[C@@H](C)O2)ccn1` (single isomer, unassigned) [Example 9B], the Emax lay in the range of 75 to 110% and the EC50 was < 1 nM.

Consider `C[C@@H]1CN(c2nc(-c3ccc(C#N)cc3)c3nc(C(F)(F)F)n(C)c(=O)c3n2)C[C@H](c2cnn(C)c2)O1` (single isomer, unassigned) [Example 10A], for which the Emax fell in the range of 75 to 110% and the EC50 is < 1 nM.

For `C[C@H]1CN(c2nc(-c3ccc(C#N)cc3)c3nc(C(F)(F)F)n(C)c(=O)c3n2)C[C@@H](c2cnn(C)c2)O1` (single isomer, unassigned) [Example 10B], the Emax lay in the range of 75 to 110% and the EC50 fell in the range of 1 to 10 nM.

Regarding `C[C@@H]1CN(c2nc(-c3ccc(C#N)cc3)c3nc(C(F)(F)F)n(C)c(=O)c3n2)C[C@H](c2cnn(C3CC3)c2)O1` (single isomer, unassigned) [Example 11A], the maximal effect (Emax) is 75 to 110% and the EC50 is < 1 nM.

The values above are taken from patent US12459953B2, “TREM2 modulators” (Muna Therapeutics ApS, priority 2024, dated 2025).
